Among the data in patent publication US8133882B2, “Quinolone derivative or pharmaceutically acceptable salt thereof” (Astellas Pharma Inc, priority 2006, dated 2012) are inhibition values, retold here.

In assay [1] the test system is human platelet aggregation (ADP-induced, platelet rich plasma). In words: Human platelet aggregation inhibition activity measuring test (ADP-induced, PRP). It is filed as cell-based. To be noted: 10 μM final concentration of compound; human PRP 3×10^8 platelets/ml; ADP (50 μM, 10 μl) induced; area under platelet aggregation curve. The method, then:
Test Method (1) Human Platelet Aggregation Inhibition Activity Measuring Test
A blood sample was collected from a healthy volunteers (adult) using a syringe containing 1/10th volume of 3.8% sodium citrate solution and centrifuged at 160×g for 10 minutes, thereby separating platelet rich plasma (PRP) of the supernatant. Remaining blood after the collection of PRP was centrifuged at 1,800×g for 10 minutes to separate platelet poor plasma (PPP). The number of platelets in the PRP was measured by an automatic blood cell counter (MEK-6258, Nihon Kohden Corp.), and then the number of platelets was adjusted to 3×10^8/ml by adding PPP to PRP and used in the following test. The ADP as an inducer of platelet aggregation was purchased from MC Medical. Platelet aggregation was measured using an aggregometer (MCM Hematracer 212; MC Medical). That is, 80 μl of PRP of 3×10^8 platelets/ml and 10 μl of a test compound solution or a solvent (10% DMSO or 10% DMSO-9% hydroxypropyl-β-cyclodextrin-4.5% d-mannitol) were incubated at 37° C. for 1 minute, and then 10 μl of ADP (50 μM) was added thereto to induce platelet aggregation, and changes in transmitted light were recorded for 5 minutes. The inhibition ratio was calculated using the area under platelet aggregation curve as an index.
In this connection, REx represents reference example number, and Ex Example compound number. In addition, Reference Examples 1 and 2 are the Example compounds described in the aforementioned Patent Reference 7, and were produced in accordance with the method described in said patent reference.

The next assay deals with T1, Human P2Y12 (Homo sapiens, UniProt Q9H244).
T1 construct: expressed in transfected cells; membrane fraction used
T1 sequence (Q9H244 whole entry): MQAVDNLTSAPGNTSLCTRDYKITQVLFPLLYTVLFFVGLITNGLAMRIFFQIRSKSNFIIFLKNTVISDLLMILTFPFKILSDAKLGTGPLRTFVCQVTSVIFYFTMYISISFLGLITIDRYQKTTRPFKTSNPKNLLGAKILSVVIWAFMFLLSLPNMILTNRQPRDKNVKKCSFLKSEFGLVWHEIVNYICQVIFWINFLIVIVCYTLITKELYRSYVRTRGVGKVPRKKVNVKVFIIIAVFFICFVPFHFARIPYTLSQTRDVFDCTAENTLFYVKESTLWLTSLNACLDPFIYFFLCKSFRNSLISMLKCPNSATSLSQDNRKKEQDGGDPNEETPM
Briefly: Substitution test for the binding of human P2Y12 with 2-methylthio-ADP (2-MeS-ADP). Particulars: 30 nM final concentration of compound; P2Y12 expression C6-15 cell membrane fraction; 0.75 nM [3H]- or [33P]-2-MeS-ADP. As to the method:
Test Method (2) Substitution Test for the Binding of Human P2Y12 with 2-methylthio-ADP (2-MeS-ADP)
A C6-15 cell was inoculated into a 10 cm petri dish to a density of to 1×10^6 cells using DMEM medium and cultured for 1 day, and then 8 μg of a plasmid pEF-BOS-dfhr-human P2Y12 and 0.8 μg of pEF-BOS-neo (Nucleic Acid Res., 18, 5322, 1990) were gene-transferred using a transfection reagent (LipofectAMINE 2000; mfd. by GIBCO BRL).
24 hours after the aforementioned gene transfer operation, the gene-transferred cells were recovered, suspended in DMEM medium supplemented with 0.6 mg/ml of G 418 (mfd. by GIBCO BRL) and then serially diluted and inoculated again in a 10 cm petri dish. The colonies appeared after 2 weeks were individually obtained and used in the following test as P2Y12 protein expression C6-15 cells (WO 02/36631, Mol. Pharmacol., 60, 432, 2001).
After culturing the P2Y12 protein expression C6-15 cells, the cells were recovered. […]
A 100 μl portion of the P2Y12 protein expression C6-15 cell membrane fraction (100 μg/ml) obtained in the above was mixed with 1.5 μl of a test compound solution and 50 μl of 0.75 nM [^3H]-2-MeS-ADP (80 Ci/mmol, mfd. by Amersham Pharmacia Biotech) or 0.75 nM [^33P]-2-MeS-ADP (2100 Ci/mmol, mfd. by Perkin Elmer), incubated at room temperature for 1 hour in 50 mM Tris-HCl (pH 7.4) containing 100 mM NaCl and 50 mM MgCl2, and then recovered on a glass filter using a cell harvester. A microscintillator was added to the glass filter, and the radioactivity was measured using a liquid scintillation counter. Those to which the solvent alone was added and 1.5 μl of 250 μM ADP was added in the aforementioned test at the same time were regarded as total binding and nonspecific binding, and their radioactivity was measured. By regarding the total binding and nonspecific binding as inhibition ratio 0% and 100% respectively, inhibition ratio (%) of each compound to be tested was calculated.

For assay [2], the system named is rat platelet aggregation (ADP-induced, PRP). In words: Rat platelet aggregation inhibition test (oral administration, ex vivo ADP-induced aggregation). To be noted: dose 30 mg/kg oral, male SD rat, blood collected 2 hours after administration. It is filed as in vivo. The method, then:
Test Method (3) Rat Platelet Aggregation Inhibition Test and Measurement of Test Compound Concentration in Plasma
By adding sodium hydroxide aqueous solution to the compound of the present invention, 0.5% methyl cellulose aqueous solution or suspension was prepared. The thus prepared liquid was orally administered using a sonde to a male SD rat (5 to 7 weeks of age) of after 12 hours or more of fasting. After 2 hours of the compound administration, blood was collected using a syringe containing 1/10th volume of 3.8% sodium citrate solution. In the same manner as in Test method (1), PPP and PRP of 3×10^8 platelets/ml were prepared. A 90 μl portion of the PRP of 3×10^8 platelets/ml was incubated at 37° C. for 1 minute, and then 10 μl of ADP (50 μM) was added thereto to induce platelet aggregation, and changes in transmitted light were recorded for 5 minutes. The inhibition ratio was calculated using the area under platelet aggregation curve as an index.

One may read the inhibition as the relative decrease from the control value, in per cent. `O=C(O)CCC(=O)Nc1cn(C2CCCC2)c2cc(NC3CCCCC3)c(F)cc2c1=O` [Ex 2, 4-{[7-(cyclohexylamino)-1-cyclopentyl-6-fluoro-4-oxo-1,4-dihydroquinolin-3-yl]amino}-4-oxobutanoic acid]: the inhibition at 10 µM in assay [1] was 93%. The inhibition at 0.03 µM on Human P2Y12 turned out to be 89%.

With `O=C(O)CCCNC(=O)c1cn(C2CCCC2)c2cc(NC3CCCCC3)c(F)cc2c1=O` [REx 1, 4-({[7-(cyclohexylamino)-1-cyclopentyl-6-fluoro-4-oxo-1,4-dihydroquinolin-3-yl]carbonyl}amino)butanoic Acid], in assay [1], the inhibition at 10 µM is 64%. The inhibition at 0.03 µM at Human P2Y12 came out at 76%. Moreover, the inhibition at 30 mg/kg in assay [2] amounted to 11%.

Regarding `O=C(O)CNC(=O)c1cn(C2CCCC2)c2cc(NC3CCCCC3)c(F)cc2c1=O` [REx 2, ({[7-(cyclohexylamino)-1-cyclopentyl-6-fluoro-4-oxo-1,4-dihydroquinolin-3-yl]carbonyl}amino)acetic Acid], the inhibition at 10 µM in assay [1] was found to be 79%. The inhibition at 0.03 µM on Human P2Y12 worked out at 86%. Besides, in assay [2], the inhibition at 30 mg/kg is -7%.
